{
  "source": "patent US20150119363A1",
  "about": "“METHODS OF TREATING BACTERIAL INFECTIONS” (Rampex Pharmaceuticals, Inc., priority 2012, published 2015)",
  "key": {"EC1007 KPC-3": {"tested_on": "EC1007 KPC-3", "test": "Dose titration biapenem potentiation assay (MPC1)", "type": "cell-based, Escherichia coli", "details": "Escherichia coli; EC1007 KPC-3", "outline": "(§1)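 Growth of carbapenemase-expressing strains measured with biapenem held at a sub-inhibitory 1 μg/mL; BLI compounds titrated from a top concentration of 40 μg/mL. MPC1 is the inhibitor concentration that restores growth inhibition by biapenem.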"}, "[1]": {"tested_on": "Escherichia coli (EC1061) NDM-1", "test": "Biapenem MIC at various concentrations of Compound 5", "type": "cell-based", "details": "Escherichia coli"}, "KP1004 KPC-2": {"tested_on": "KP1004 KPC-2", "test": "Dose titration biapenem potentiation assay (MPC1)", "type": "cell-based, Klebsiella pneumoniae", "details": "Klebsiella pneumoniae; KP1004 KPC-2"}, "KP1008 KPC-2": {"tested_on": "KP1008 KPC-2", "test": "Dose titration biapenem potentiation assay (MPC1)", "type": "cell-based, Klebsiella pneumoniae", "details": "Klebsiella pneumoniae; KP1008 KPC-2"}, "[2]": {"tested_on": "Klebsiella pneumonia (KPM1097) NDM-1, KPC-2", "test": "Biapenem MIC at various concentrations of Compound 5", "type": "cell-based", "details": "Klebsiella pneumoniae"}, "ECL1004 NMC-A": {"tested_on": "ECL1004 NMC-A", "test": "Dose titration biapenem potentiation assay (MPC1)", "type": "cell-based, Enterobacter cloacae", "details": "Enterobacter cloacae; ECL1004 NMC-A", "outline": "as §1"}, "[3]": {"tested_on": "Klebsiella pneumoniae KP1008 (KPC-2)", "test": "Checkerboard assay, Compound 5 with biapenem", "type": "cell-based", "details": "Klebsiella pneumoniae", "text": "(§2) The potentiation effect is observed by the reduction of the minimum inhibitory concentration of β-lactam antibiotics in the presence of β-lactamase inhibitors (BLIs). […] Methods for Dilution of Antimicrobial Susceptibility Tests for Bacteria That Grow Aerobically—Eighth Edition; Approved Standard. CLSI Document M07-A8, 2009). In this assay, multiple dilutions of two drugs, namely BLI and β-lactam (biapenem), are being tested, alone and in combination, at concentrations equal to, above and below their respective minimal inhibitory concentrations (MICs). BLIs are solubilized in 10% DMSO at 10 mg/mL. Stock solutions are further diluted, according to the needs of a particular assay, in Mueller Hinton Broth (MHB). Stock solution can be stored at −80° C.\n(§3) The checkerboard (CB) assay is performed in microtiter plates. Biapenem is diluted in the x axis, each column containing a single concentration of antibiotic. BLIs are diluted in the y axis, each row containing an equal concentration of BLI. The result of these manipulations is that each well of the microtiter plate contains a unique combination of concentrations of the two agents. The assay is performed in MHB with a final bacterial inoculum of 5×10^5 CFU/mL (from an early-log phase culture). Microtiter plates are incubated during 20 h at 35° C. and are read using a microtiter plate reader (Molecular Devices) at 650 nm as well as visual observation using a microtiter plate reading mirror."}, "[4]": {"tested_on": "Escherichia coli EC1007 (KPC-3)", "test": "Checkerboard assay, Compound 5 with biapenem", "type": "cell-based", "details": "Escherichia coli", "text": "as §2, §3"}, "[5]": {"tested_on": "Klebsiella pneumoniae KP1088 (KPC-3, SHV-11, TEM-1)", "test": "Checkerboard assay, Compound 5 with biapenem", "type": "cell-based", "details": "Klebsiella pneumoniae", "text": "as §2, §3"}, "[6]": {"tested_on": "Klebsiella oxytoca KX1018 (KPC-2, SHV-40, OXY-1)", "test": "Checkerboard assay, Compound 5 with biapenem", "type": "cell-based", "details": "Klebsiella oxytoca", "text": "as §2, §3"}, "[7]": {"tested_on": "Enterobacter cloacae ECL1058 (KPC-3, SHV-11, TEM-1)", "test": "Checkerboard assay, Compound 5 with biapenem", "type": "cell-based", "details": "Enterobacter cloacae", "text": "as §2, §3"}, "[8]": {"tested_on": "Klebsiella pneumoniae KP1083 (KPC-3, SHV-1, TEM-1)", "test": "Checkerboard assay, Compound 5 with biapenem", "type": "cell-based", "details": "Klebsiella pneumoniae", "text": "as §2, §3"}, "[9]": {"tested_on": "Klebsiella oxytoca KX1017 (KPC-2, OXA-2, SHV-30)", "test": "Checkerboard assay, Compound 5 with biapenem", "type": "cell-based", "details": "Klebsiella oxytoca", "text": "as §2, §3"}, "[10]": {"tested_on": "Klebsiella pneumoniae KP1087 (KPC-2, CTX-M-15, SHV-11, TEM-1)", "test": "Checkerboard assay, Compound 5 with biapenem", "type": "cell-based", "details": "Klebsiella pneumoniae", "text": "as §2, §3"}, "[11]": {"tested_on": "Klebsiella oxytoca KX1019 (KPC-2, OXA-2)", "test": "Checkerboard assay, Compound 5 with biapenem", "type": "cell-based", "details": "Klebsiella oxytoca", "text": "as §2, §3"}, "[12]": {"tested_on": "Klebsiella pneumoniae KP1004 (KPC-2)", "test": "Checkerboard assay, Compound 5 with biapenem", "type": "cell-based", "details": "Klebsiella pneumoniae", "text": "as §2, §3"}, "[13]": {"tested_on": "Enterobacter cloacae ECL1059 (KPC-3, SHV-12, TEM-1)", "test": "Checkerboard assay, Compound 5 with biapenem", "type": "cell-based", "details": "Enterobacter cloacae", "text": "as §2, §3"}, "[14]": {"tested_on": "Klebsiella pneumoniae KP1082 (KPC-2, SHV-1)", "test": "Checkerboard assay, Compound 5 with biapenem", "type": "cell-based", "details": "Klebsiella pneumoniae", "text": "as §2, §3"}, "[15]": {"tested_on": "Klebsiella pneumoniae KP1084 (KPC-3, SHV-11, TEM-1)", "test": "Checkerboard assay, Compound 5 with biapenem", "type": "cell-based", "details": "Klebsiella pneumoniae", "text": "as §2, §3"}, "[16]": {"tested_on": "Klebsiella pneumonia (KP1004) KPC-2", "test": "Biapenem MIC at various concentrations of Compound 5", "type": "cell-based", "details": "Klebsiella pneumoniae"}, "[17]": {"tested_on": "bacterial strains that expressed the beta-lactamase, NDM-1 and CMY-6", "test": "Aztreonam/Tigemonam MIC at various concentrations of BLI (summary)", "type": "cell-based", "method": "(§4) MIC values for each bacterial strain were measured for each antimicrobial compound at various concentrations of each BLI."}, "[18]": {"tested_on": "E. coli EC1061 (NDM-1 CMY-6)", "test": "Aztreonam/Tigemonam MIC at various concentrations of BLI", "type": "cell-based", "details": "for MIC: Escherichia coli, E. coli EC1061, read-out: Tigemonam MIC", "method": "MIC values for each bacterial strain were measured for each antimicrobial compound at various concentrations of each BLI. […]"}, "[19]": {"tested_on": "E. coli EC1061 (NDM-1 CMY-6)", "test": "Aztreonam/Tigemonam MIC at various concentrations of BLI", "type": "cell-based", "details": "Compound 68 0 μg/ml"}, "[20]": {"tested_on": "K. pneumoniae KP1081 (NDM-1, CMY-6, SHV-11, CTX-M-15, TEM-1)", "test": "Aztreonam/Tigemonam MIC at various concentrations of BLI", "type": "cell-based", "details": "KP1081", "method": "as §4"}},
  "note": "Read-outs that look alike come from different tables or passages of the source.",
  "data": [
    {"smiles": "C[C@@H](O)[C@H]1C(=O)N2C(C(=O)[O-])=C(SC3Cn4cnc[n+]4C3)[C@H](C)[C@H]12", "note": "(stereo partly drawn) [Biapenem, reference compound]", "values": [
      {"measurement": "MIC", "setting": "EC1007 KPC-3", "result": 4, "unit": "µg/mL"},
      {"measurement": "MIC", "setting": "[1]", "result": 0.125, "unit": "µg/mL"},
      {"measurement": "MIC", "setting": "KP1004 KPC-2", "result": "> 8", "unit": "µg/mL"},
      {"measurement": "MIC", "setting": "KP1008 KPC-2", "result": 8, "unit": "µg/mL"},
      {"measurement": "MIC", "setting": "[2]", "result": 16, "unit": "µg/mL"},
      {"measurement": "MIC", "setting": "ECL1004 NMC-A", "result": 8, "unit": "µg/mL"},
      {"measurement": "MIC", "setting": "[3]", "result": "> 4", "unit": "µg/mL"},
      {"measurement": "MIC", "setting": "[4]", "result": "> 4", "unit": "µg/mL"},
      {"measurement": "MIC", "setting": "[5]", "result": "> 4", "unit": "µg/mL"},
      {"measurement": "MIC", "setting": "[6]", "result": "> 4", "unit": "µg/mL"},
      {"measurement": "MIC", "setting": "[7]", "result": "> 4", "unit": "µg/mL"},
      {"measurement": "MIC", "setting": "[8]", "result": "> 4", "unit": "µg/mL"},
      {"measurement": "MIC", "setting": "[9]", "result": "0.5 to 4", "unit": "µg/mL"},
      {"measurement": "MIC", "setting": "[10]", "result": "> 4", "unit": "µg/mL"},
      {"measurement": "MIC", "setting": "[11]", "result": "> 4", "unit": "µg/mL"},
      {"measurement": "MIC", "setting": "[12]", "result": "> 4", "unit": "µg/mL"},
      {"measurement": "MIC", "setting": "[13]", "result": "0.5 to 4", "unit": "µg/mL"},
      {"measurement": "MIC", "setting": "[14]", "result": "0.5 to 4", "unit": "µg/mL"},
      {"measurement": "MIC", "setting": "[15]", "result": "> 4", "unit": "µg/mL"},
      {"measurement": "MIC", "setting": "[16]", "result": 8, "unit": "µg/mL"}
    ]},
    {"smiles": "O=C(O)C[C@H]1C=CC[C@H](NC(=O)Cc2cccs2)B(O)O1", "note": "[Compound 68, 2-((3R,7S)-2-hydroxy-3-(2-(thiophen-2-yl)acetamido)-2,3,4,7-tetrahydro-1,2-oxaborepin-7-yl)acetic acid]", "values": [
      {"measurement": "effect on Aztreonam or Tigemonam MICs", "setting": "[17]", "result": "decreased the Aztreonam or Tigemonan MICs"},
      {"measurement": "MIC", "setting": "[18]; with 0.31 μg/ml Compound A", "result": 0.5, "unit": "µg/mL"}
    ]},
    {"smiles": "CC1(C)[C@H](NC(=O)/C(=N\\OCC(=O)O)c2csc(N)n2)C(=O)N1OS(=O)(=O)O", "note": "[Tigemonam, reference compound]", "values": [
      {"measurement": "Tigemonam MIC (μg/ml) in the presence of BLI", "setting": "[19]", "result": 16, "unit": "µg/mL"},
      {"measurement": "Tigemonam MIC (μg/ml) in the presence of BLI", "setting": "[18]; EC1061, Compound 5 0 μg/ml", "result": 8, "unit": "µg/mL"},
      {"measurement": "MIC", "setting": "[18]; tigemonam alone", "result": 8, "unit": "µg/mL"},
      {"measurement": "Tigemonam MIC (μg/ml) in the presence of BLI", "setting": "[20]; Compound 5 0 μg/ml", "result": 16, "unit": "µg/mL"},
      {"measurement": "Tigemonam MIC (μg/ml) in the presence of BLI", "setting": "[20]; Compound 68 0 μg/ml", "result": 16, "unit": "µg/mL"}
    ]}
  ]
}
